Experimental data reported in PubChem BioAssay AID1996.
≈ marks a conversion by molar mass, not a printed value.

Settings: buffer; pH 7.4; 200.0 µM

Row | SMILES | solubility kinetic [mg/mL]
1 | CC(=O)N1CCN(c2ccc(S(=O)(=O)N3CCCCC3)cc2[N+](=O)[O-])CC1 | > 0.0595
2 | CCOc1ccc(C(=O)OCC(=O)N2CCCC2)cc1OCC | 0.0383 (≈ 119 µM)
3 | CCOC(=O)N1CCN=C1SCc1ccc(C(F)(F)F)cc1 | 0.0136 (≈ 40.9 µM)
4 | COc1ccccc1C1CCN(Cc2c(C)[nH]c3ccccc23)CC1 | > 0.0502
5 | O=[N+]([O-])c1cccc2cn[nH]c12 | > 0.0245
6 | CCN1C(=O)NC(c2ccc(Cl)cc2)C2=C1CCCC2=O (stereo not given) | 0.0442 (≈ 145 µM)
7 | COc1ccc(NC(=O)CCCc2ccc(OC)c(C)c2)cc1 | 0.0021 (≈ 6.7 µM)
8 | CCn1c(CNC(=O)c2ccccc2F)cc2ccccc21 | 0.002 (≈ 6.75 µM)
9 | COc1ccc(S(=O)(=O)Nc2c(C)nn(C)c2C)cc1Br | > 0.0561
10 | O=c1oc2ccccc2n1Cc1ccccc1 | 0.0086 (≈ 38.2 µM)
11 | NC(Cc1c[nH]c2ccccc12)C(=O)NCc1ccco1 (stereo not given) | > 0.0425
12 | O=C(NCCc1ccc(Cl)cc1)c1ccc2nc[nH]c2c1 | > 0.045
13 | O=c1[nH]c(=S)n(C2CC2)c(O)c1C=NCC1CCCO1 (stereo not given) | > 0.0443
14 | C(#CC12CC3CC(CC(C3)C1)C2)CN1CCOCC1 | 0.0178 (≈ 68.6 µM)
15 | COc1ccccc1C(=O)NCC1(c2ccccc2)CCCC1 | 0.0081 (≈ 26.2 µM)
16 | COc1ccc(CNC(=O)COC(=O)/C=C/c2cccc(Cl)c2)cc1 | 0.0033 (≈ 9.17 µM)
17 | C[n+]1cc(-c2ccccc2)oc1-c1ccccc1 | 0.0244
18 | Nc1nc(-c2ccc(S(=O)(=O)N3CCCCC3)cc2)cs1 | 0.0066 (≈ 20.4 µM)
19 | O=C(Nc1ccccc1Cl)c1sccc1-c1ccccc1 | < 0.0007
20 | COc1ccccc1C(=O)Nc1c(-c2ccccc2)nc2ccccn12 | 0.01 (≈ 29.1 µM)
21 | Cc1ccc(C(=O)Oc2ccccc2N2CCOCC2)cc1 | 0.0049 (≈ 16.5 µM)
22 | NC(=O)COC(=O)c1c2c(nc3ccccc13)CCCC2 | 0.0394 (≈ 139 µM)
23 | CCCCNC(=O)COC(=O)c1ccc(F)cc1Cl | > 0.0432
24 | CCSc1nc2sc3c(c2c(=O)n1-c1ccccc1)CCN(C(C)C)C3 | 0.037 (≈ 96 µM)

Row | SMILES | solubility kinetic [mg/mL]
25 | O=S(=O)(c1ccc(-c2ccon2)s1)N1CCCC1 | 0.0115 (≈ 40.4 µM)
26 | O=C(Nc1nccs1)OCc1ccccc1 | 0.0128 (≈ 54.6 µM)
27 | CCNS(=O)(=O)c1ccc(CCC(=O)N2CCC(C)CC2)cc1 | 0.049 (≈ 145 µM)
28 | Cc1[nH]nc(SCC(=O)N2CCCCCC2)c1[N+](=O)[O-] | > 0.0448
29 | Cc1cnc(C(=O)OCC(=O)c2cc(C)n(C)c2C)cn1 | > 0.0431
30 | COc1cccc(N/C(N)=N/c2nc(C)cc(=O)[nH]2)c1 | 0.0406 (≈ 149 µM)
31 | CCCN(CCC)C(=O)Nc1ccc(F)cc1F | > 0.0384
32 | Nc1cc(N)nc(SCc2cccc(F)c2)n1 | 0.0249 (≈ 99.5 µM)
33 | C=CCn1c(C)c(C=C2C(=O)NC(=O)NC2=O)c2ccccc21 | > 0.0464
34 | COCc1cc(=O)[nH]c(SCC(=O)N2CCOCC2)n1 | > 0.0449
35 | COc1cccc(-c2nc(-c3ccc(Br)o3)no2)c1 | 0.0005 (≈ 1.56 µM)
36 | Cc1ccc(C(=O)NCc2nc3ccccc3[nH]2)o1 | > 0.0383
37 | CC(NC(=O)c1ccncc1)c1ccc(Br)cc1 (stereo not given) | > 0.0458
38 | NC(=O)C1CCN(CC(=O)NC(=O)NC2CCCC2)CC1 | > 0.0445
39 | COc1ccc(NC(=O)c2ccc3ccccc3c2)cc1 | < 0.0006
40 | Cc1ccc(CNC(=O)CCCc2c[nH]c3ccccc23)cc1 | 0.0176 (≈ 57.4 µM)
41 | CC(C)(C)OC(=O)N1CCC(CNC(=O)c2cccs2)CC1 | 0.0424 (≈ 131 µM)
42 | Cc1cc(C(=O)COC(=O)/C=C/c2ccco2)c(C)n1C | 0.0129 (≈ 44.9 µM)
43 | CCOc1ccccc1N1CCN(C(=O)NCc2ccc(C)cc2)CC1 | > 0.053
44 | O=C1OCC(c2ccc(Cl)s2)=C1c1ccccc1[N+](=O)[O-] | 0.0223 (≈ 69.3 µM)
45 | Cc1cc(C)c(C(=O)O)c(Cl)n1 | > 0.0278
46 | Cc1nccc(-c2cc(-c3ccc(Cl)cc3Cl)no2)n1 | < 0.0002
47 | O=c1[nH]c(-c2ccccc2)c(-c2ccccc2)nc1[N+](=O)[O-] | 0.0421 (≈ 144 µM)
48 | Cn1cnc([N+](=O)[O-])c1SCC(O)CCl (stereo not given) | 0.0365 (≈ 145 µM)

Row | SMILES | solubility kinetic [mg/mL]
49 | N#C/C(=C/c1ccc(O)c(O)c1)C(=O)NCc1ccc(Cl)cc1 | 0.0449 (≈ 137 µM)
50 | OCCSc1nc(N2CCOCC2)nc(N2CCOCC2)n1 | > 0.0491
51 | Cc1ccc(S(=O)(=O)N2CC3CCCC2C3)cc1 (stereo not given) | 0.0349 (≈ 132 µM)
52 | COc1ccc(C(=O)n2cc(C(C)=O)c3ccccc32)cc1 | 0.0013 (≈ 4.43 µM)
53 | O=C(CCc1nc(-c2ccccc2Cl)no1)NCc1ccco1 | > 0.0498
54 | O=C1CN(C(=O)COC(=O)c2ccccc2O)c2ccccc2N1 | 0.0035 (≈ 10.7 µM)
55 | CCC(=O)Nc1nc(NCc2ccccc2OC)n(-c2ccccc2)n1 | > 0.0527
56 | CC1=N/C(=C\c2ccccc2Cl)C(=O)O1 | 0.0277 (≈ 125 µM)
57 | CC1CC(C(=O)Nc2ccccc2)C(=O)O1 (stereo not given) | 0.0272 (≈ 124 µM)
58 | CCOC(=O)NC(=O)c1cn(-c2ccc(OC)cc2)c(=O)[nH]c1=O | 0.0091 (≈ 27.3 µM)
59 | CCOc1ccc(C2NC(=S)NC3=C2CCc2ccccc23)cc1 (stereo not given) | 0.0109 (≈ 32.4 µM)
60 | Cc1ccc(NCCC(=O)c2cccc([N+](=O)[O-])c2)c(C)c1 | 0.0017 (≈ 5.7 µM)
61 | Fc1ccccc1N1CCN(CCCc2ccccc2)CC1 | 0.0196 (≈ 65.7 µM)
62 | Cc1ccc(N(Cc2cc(=O)[nH]c3ccccc23)C(=O)C(C)C)c(C)c1 | 0.0177 (≈ 50.8 µM)
63 | CC(=O)Nc1cccc(NC(=S)Nc2cccc(Cl)c2C)c1 | 0.0449 (≈ 134 µM)
64 | COc1ccccc1C(=O)NCC(=O)NCCc1ccc(Cl)cc1 | 0.0388 (≈ 112 µM)
65 | CCOc1ccc(S(=O)(=O)NCc2cccnc2)cc1 | > 0.0439
66 | CC(OC(=O)C1=COCCO1)C(=O)NC1(C#N)CCCCC1 (stereo not given) | 0.0457 (≈ 148 µM)
67 | CN1c2ccccc2C(=O)C(=C2SCCCS2)S1(=O)=O | 0.027 (≈ 82.5 µM)
68 | CCOc1ccccc1NC(=O)c1ccccc1NC(=O)c1ccco1 | < 0.0004
69 | CC(Sc1nnc2ccccn12)C(=O)Nc1ccc(N2CCOCC2)cc1 (stereo not given) | > 0.0575
70 | COc1ccc2oc(=O)c(C(=O)NC(C)c3ccccc3)cc2c1 (stereo not given) | < 0.0007
71 | CCNC(=O)C(C)NC(=O)C1=NN(c2ccccc2)C(=O)CC1 (stereo not given) | > 0.0475
72 | Cn1cnc2c(=O)sc3ccccc3c21 | > 0.0324

Row | SMILES | solubility kinetic [mg/mL]
73 | Cc1ccccc1OC(C)C(=O)NCCCN1CCOCC1 (stereo not given) | 0.0415 (≈ 135 µM)
74 | C=CCn1c(Oc2cccc(C)c2)nc2c1c(=O)n(C)c(=O)n2C | > 0.049
75 | Cc1cccc(/C=C/c2onc(C)c2[N+](=O)[O-])n1 | 0.0028 (≈ 11.4 µM)
76 | CC(C)Sc1nc(SCC(=O)O)c2c3c(sc2n1)COC(C)(C)C3 | 0.0569 (≈ 148 µM)
77 | FC(F)(F)c1nc2ccccc2[nH]1 | > 0.0279
78 | Cc1ccc(NC2=NCCCS2)cc1Cl | 0.0284 (≈ 118 µM)
79 | CC1(C)Cc2c(C#N)c(NCCO)nc(-c3ccco3)c2CO1 | 0.0374 (≈ 119 µM)
80 | Cc1ccc(NC(=O)Cc2ccc(-c3ccccc3)cc2)nc1 | 0.0057 (≈ 18.9 µM)
81 | S=C(NCc1ccc(Cl)cc1)N1CCN(c2ccccn2)CC1 | < 0.0002
82 | CCN(c1ccc(NC(=O)CSc2ccc3c(c2)OCCO3)cc1)C(C)C | 0.0044 (≈ 11.4 µM)
83 | COc1ccc(CNC(=S)NCc2ccc(F)cc2)cc1 | 0.0095 (≈ 31.2 µM)
84 | Cc1ccc(SCC(=O)Nc2ccc(N3CCOCC3)cc2)cc1C | 0.0123 (≈ 34.5 µM)
85 | CC(=O)c1c(O)c2ccccc2n(C2CCCCC2)c1=O | 0.0014 (≈ 4.91 µM)
86 | O=C(O/N=C/c1ccc(Cl)cc1)C1CCCCC1 | 0.0024 (≈ 9.03 µM)
87 | CC(=O)Nc1ccccc1S(=O)(=O)CC1CC1(Cl)Cl (stereo not given) | > 0.0483
88 | Cc1ccccc1C(=O)OCc1cnc(Cl)s1 | 0.0014 (≈ 5.23 µM)
89 | Cc1cc(C(=O)NC2CCCCC2)on1 | > 0.0312
90 | Nc1c(N(CCCO)C(=O)C2CCCCC2)c(=O)[nH]c(=O)n1Cc1ccccc1 | > 0.0601
91 | Cc1nc(SCCc2ccccc2)[nH]c(=O)c1C | 0.0109 (≈ 41.9 µM)
92 | COc1ccc(OC)c(NC(=S)Nc2ccccc2)c1 | > 0.0433
93 | CSc1nc(N2CCOCC2)c2c(c1C#N)CC(C(C)C)OC2 (stereo not given) | < 0.0002
94 | Cc1ccc(C(=O)Nc2ccccc2Oc2ccccc2)o1 | 0.0125 (≈ 42.6 µM)
95 | COc1cc(NC(=O)C(C)C)ccc1NC(=O)c1cc2ccccc2o1 | 0.0007 (≈ 1.99 µM)
96 | Cc1nnc(-c2cnn(C)c2N)n1CCCN1CCOCC1 | > 0.0458

Row | SMILES | solubility kinetic [mg/mL]
97 | O=C(O)c1ccc[nH]c1=S | > 0.0233
98 | O=C1CCN(Cc2ccccc2)C(=O)N1c1ccccc1 | > 0.042
99 | N#Cc1c(-c2cccc([N+](=O)[O-])c2)nc2n(c1=O)CCS2 | > 0.045
100 | COc1ccc(NS(=O)(=O)c2ccc3c(c2)CCC(=O)N3)cc1O | > 0.0523
101 | CC(=O)NC(C(=O)N1CCC(c2nc3ccccc3s2)CC1)C(C)C (stereo not given) | 0.0511 (≈ 142 µM)
102 | O=C(NC1CCCc2ccccc21)c1ccccc1Cl (stereo not given) | 0.0396 (≈ 139 µM)
103 | CCn1c(NC(=O)c2ccccc2)nc2ccccc21 | 0.003 (≈ 11.3 µM)
104 | CN(c1ccccc1)c1nc(N)c([N+](=O)[O-])c(N2CCCCCC2)n1 | 0.0026 (≈ 7.59 µM)
105 | C[C@H](NC(=O)c1cccc([N+](=O)[O-])c1)C(=O)OCC(=O)c1ccccc1Br | > 0.0653
106 | Cc1ccc(Cl)c(OCC(=O)Nc2ccccc2C(=O)NC2CC2)c1 | 0.0059 (≈ 16.4 µM)
107 | O=C(O)CCc1ccc(-c2cccs2)n1CCc1ccccc1 | > 0.0488
108 | O=C(CN1C(=O)NC(c2ccccc2)(c2ccccc2)C1=O)NCc1ccc(F)cc1 | 0.0064 (≈ 15.3 µM)
109 | CCOc1ccc(C(C)=O)cc1COC(=O)CNC(=O)C12CC3CC(CC(C3)C1)C2 | 0.0367 (≈ 88.8 µM)
110 | O=C(NCCc1ccco1)c1ccc(OCc2cn3ccccc3n2)cc1 | > 0.0542
111 | Cc1ccc(OCc2nc3ccccc3n2C)cc1 | 0.0057 (≈ 22.6 µM)
112 | Cc1cc([N+](=O)[O-])ccc1NC(=O)c1cc2ccccc2o1 | < 0.0003
113 | O=[N+]([O-])c1cccnc1NCCc1c[nH]c2ccccc12 | 0.0003 (≈ 1.06 µM)
114 | CCN1CCN(C(=O)/C=C/c2ccc3c(c2)OCO3)CC1 | > 0.0433
115 | Cc1ccc(S(=O)(=O)N2CCOCC2)cc1NC(=O)CN1C(=O)NC2(CCCC2)C1=O | > 0.0676
116 | COc1nc(N)nc(NC(=O)c2cccs2)c1N=O | 0.0252 (≈ 90.2 µM)
117 | Cc1ccc(NC(=O)CN(C)C(=O)C2COc3ccccc3O2)cc1 (stereo not given) | 0.0474 (≈ 139 µM)
118 | CC(C)(C)c1ccc(C(=O)OCC(=O)NCc2ccco2)cc1 | 0.039 (≈ 124 µM)
119 | COc1ccccc1OCC(=O)N1CCCCCCC1 | > 0.0416
120 | COc1ccc(-c2cc(C(=O)OCC(=O)N3CCOCC3)c3ccccc3n2)cc1 | 0.0263 (≈ 64.7 µM)
